Test results: patent publication US6930184B2, “Functional fluorescent dyes” (3M Innovative Properties Company, priority 2002, dated 2005)

Legend:
Solubility in acetone = assay type: physicochemical; conditions: acetone added until no undissolved dye remained
Description: Solubility of the dyes in acetone was determined by weighing a small amount of dye into a jar and adding small aliquots of acetone until no undissolved dye remained.

[1] = Solubility in acrylate monomer (fluorescence measurement); assay type: physicochemical
Description: Solubility of the dyes was determined in various acrylate monomers using standard fluorescence measurement techniques (SPEX Fluorolog-3 Spectrophotometer, SPEX Industries, Edison, N.J.).

[2] = acrylate monomer BMA (butyl methacrylate)
[3] = acrylate monomer LMA (lauryl methacrylate)

SMILES | Solubility of dye in acetone (Solubility in acetone) | Solubility of dyes in acrylate monomers [1, 2] | Solubility of dyes in acrylate monomers [1, 3]
C=CC(=O)OCCn1c(=O)c2ccc3sc4ccccc4c4ccc(c1=O)c2c34 [AD-1] | 0.83 g acetone/mg of dye | 1217 μg dye/mL of acrylate monomer | 816 μg dye/mL of acrylate monomer
C=CC(=O)OCCOc1cc2c3ccccc3c(=O)c3ccc4c5ccccc5sc1c4c32 [AD-5] | 0.65 g acetone/mg of dye | – | –
C=CC(=O)OCCn1c(=O)c2ccc3sc4ccccc4c4ccc(c1=O)c2c34 [AD-7] | 0.83 g acetone/mg of dye | 301 μg dye/mL of acrylate monomer | 114 μg dye/mL of acrylate monomer
C=CC(=O)OCCn1c(=O)c2ccc3sc4ccccc4c4ccc(c1=O)c2c34 [AD-6] | 11.6 g acetone/mg of dye | 559 μg dye/mL of acrylate monomer | 227 μg dye/mL of acrylate monomer
C=CC(=O)OCCOc1cc2c3ccccc3c(=O)c3ccc4c5ccccc5sc1c4c32 [AD-4] | 11.0 g acetone/mg of dye | – | –
